Consider 13 compounds from ChEMBL document CHEMBL5150072, “Discovery and Crystallographic Studies of Nonpeptidic Piperazine Derivatives as Covalent SARS-CoV-2 Main Protease Inhibitors” (J Med Chem, 2022).

Activity calls are given as the source filed them. The calls are words filed in the database; no cut-off is given here. A value given as a limit tells only on which side of the number the result lay.

Series [1] concerns SARS-CoV-2. The series can be described thus: Antiviral activity against SARS-CoV-2 infected in Vero E6 cells preincubated for 1 hr followed by methylcellulose addition and measured after 25 to 26 hrs by EliSpot reader based analysis. It counts as functional, organism-based. The note with it: Severe acute respiratory syndrome coronavirus 2, Vero C1008.
Series [2] addresses T1, Replicase polyprotein 1ab (Severe acute respiratory syndrome coronavirus 2, UniProt P0DTD1). Nature of the series: Inhibition of SARS-CoV-2 main protease using MCA-AVLQSGFR-Lys(Dnp)-Lys-NH2 as substrate preincubated for 30 mins followed by substrate addition and measured every 10 sec for 10 mins by FRET assay.
The nature of series [3]: Cytotoxicity against african green monkey Vero E6 cells assessed as reduction in cell viability after 26 hrs by MTS assay. As to conditions: chlorocebus sabaeus. It counts as toxicity, cell-based, Vero C1008. On the technique in general: Tetrazolium dyes change colour on reduction, which living cells bring about.
The test system of series [4] is SARS-CoV-2. Nature of the series: Antiviral activity against SARS-CoV-2 infected in Vero E6 cells. It counts as functional, organism-based. As to conditions: Severe acute respiratory syndrome coronavirus 2, Vero C1008.
In the next series the target is T2, Cathepsin K (Homo sapiens, UniProt P43235).
T2 sequence (P43235 whole entry): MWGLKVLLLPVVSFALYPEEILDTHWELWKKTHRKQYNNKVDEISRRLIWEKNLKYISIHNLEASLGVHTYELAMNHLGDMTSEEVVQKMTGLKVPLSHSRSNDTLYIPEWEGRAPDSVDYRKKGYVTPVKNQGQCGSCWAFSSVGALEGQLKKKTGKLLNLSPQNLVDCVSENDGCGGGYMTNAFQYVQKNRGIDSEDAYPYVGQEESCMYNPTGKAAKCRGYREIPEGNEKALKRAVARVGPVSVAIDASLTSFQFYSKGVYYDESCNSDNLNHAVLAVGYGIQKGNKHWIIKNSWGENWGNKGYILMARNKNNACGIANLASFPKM
The series can be described thus: Inhibition of human cathepsin K using Ac-LR-AFC as substrate by […] assay. The class given is toxicity.

The next series addresses Procathepsin L (Homo sapiens, UniProt P07711). The series can be described thus: Inhibition of human cathepsin L using Z-Leu-Arg-AMC as substrate by […] assay. The class given is toxicity.
The next series deals with T3, Caspase-3 (Homo sapiens, UniProt P42574).
T3 sequence (P42574 whole entry): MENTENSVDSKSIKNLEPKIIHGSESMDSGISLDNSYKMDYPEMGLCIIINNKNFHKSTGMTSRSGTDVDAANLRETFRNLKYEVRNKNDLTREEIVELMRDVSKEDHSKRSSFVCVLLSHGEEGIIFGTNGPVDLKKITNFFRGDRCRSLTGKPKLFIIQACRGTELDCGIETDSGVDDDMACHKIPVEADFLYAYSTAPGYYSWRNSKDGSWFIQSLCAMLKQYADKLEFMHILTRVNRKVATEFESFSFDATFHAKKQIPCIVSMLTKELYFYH
The series can be described thus: Inhibition of human caspase 3 using Ac-Asp-Glu-Val-Asp-pNA as substrate by […] assay. It counts as toxicity.

Series [5] deals with Replicase polyprotein 1ab (Severe acute respiratory syndrome coronavirus 2) (UniProt P0DTD1). Nature of the series: Covalent inhibition of SARS-CoV-2 main protease assessed as protein-compound adduct formation incubated for 30 mins by MALDI-TOF analysis.
A further series concerns the target T4, Cathepsin F (Homo sapiens, UniProt Q9UBX1).
T4 sequence (Q9UBX1 whole entry): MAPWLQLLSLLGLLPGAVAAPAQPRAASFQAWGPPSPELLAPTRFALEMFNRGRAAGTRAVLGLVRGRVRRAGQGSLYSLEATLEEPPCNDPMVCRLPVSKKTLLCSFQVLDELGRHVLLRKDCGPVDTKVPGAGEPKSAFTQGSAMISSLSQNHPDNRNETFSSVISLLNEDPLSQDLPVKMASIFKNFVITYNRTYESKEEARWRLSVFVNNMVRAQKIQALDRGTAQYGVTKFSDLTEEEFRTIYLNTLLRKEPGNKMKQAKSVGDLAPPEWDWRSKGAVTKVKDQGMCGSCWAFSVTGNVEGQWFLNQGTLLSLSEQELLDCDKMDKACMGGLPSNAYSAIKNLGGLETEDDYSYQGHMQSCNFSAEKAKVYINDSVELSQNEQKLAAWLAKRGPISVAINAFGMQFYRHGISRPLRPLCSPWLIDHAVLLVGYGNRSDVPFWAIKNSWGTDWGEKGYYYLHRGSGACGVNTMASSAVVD
Nature of the series: Inhibition of human cathepsin F using Z-Phe-Arg-AMC as substrate by […] assay. The class given is toxicity.

Series [6] concerns the target Replicase polyprotein 1ab (Severe acute respiratory syndrome coronavirus 2) (UniProt P0DTD1). The series can be described thus: Irreversible inhibition of SARS-CoV-2 main protease assessed as ratio of Kinact/Ki incubated for 60 mins by MS analysis.
In another series the target is Cathepsin B (Homo sapiens, UniProt P07858). The series can be described thus: Inhibition of human cathepsin B using Z-Leu-Arg-AMC as substrate by […] assay. The class given is toxicity.
Series [7] concerns the target Replicase polyprotein 1ab (Severe acute respiratory syndrome coronavirus 2) (UniProt P0DTD1). The series can be described thus: Potency index, ratio of IC50 for MCULE-5948770040 to IC50 for test compound for inhibition of SARS-COV-2 main protease.
Series [8] has as its system SARS-CoV-2. The series can be described thus: Antiviral activity against SARS-CoV-2 infected in Vero E6 cells assessed as reduction in virus induced cytopathic effect incubated for 3 days. It counts as functional, organism-based. As to conditions: Severe acute respiratory syndrome coronavirus 2, Vero C1008, 72 h. (Protection from cytopathic effect is a common read-out in antiviral testing.)

In series [9] the test system is SARS-CoV-2. Nature of the series: Antiviral activity against SARS-CoV-2 infected in VeroE6 cells measured after 24 hrs post infection by plaque assay. The class given is functional, organism-based. As to conditions: Severe acute respiratory syndrome coronavirus 2, Vero C1008, 24 h.
The target in series [10] is T1, Replicase polyprotein 1ab. Nature of the series: Inhibition of SARS-CoV-2 main protease.
Series [11] is described as follows: Cytotoxicity against african green monkey Vero E6 cells. As to conditions: chlorocebus sabaeus. The class given is toxicity, cell-based, Vero C1008.
For series [12], the target named is T1, Replicase polyprotein 1ab. Nature of the series: Inhibition of SARS-CoV-2 main protease incubated for 30 mins by FRET based assay.

Procathepsin L, sequence (P07711 whole entry): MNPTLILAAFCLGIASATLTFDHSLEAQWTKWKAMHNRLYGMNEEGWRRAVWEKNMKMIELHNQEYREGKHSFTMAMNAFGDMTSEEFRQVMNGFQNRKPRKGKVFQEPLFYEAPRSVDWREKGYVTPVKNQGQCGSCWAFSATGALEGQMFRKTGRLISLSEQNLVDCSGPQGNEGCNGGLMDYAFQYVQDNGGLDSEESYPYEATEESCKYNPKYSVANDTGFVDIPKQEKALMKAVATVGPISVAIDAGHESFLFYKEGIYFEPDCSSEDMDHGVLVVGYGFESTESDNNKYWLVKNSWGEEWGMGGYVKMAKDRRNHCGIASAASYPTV

A word on the EC50: it is the concentration that produces a half-maximal response. Broadly, the IC50 is the concentration needed to halve the response being measured. As usually defined, the CC50 is the concentration that lowers cell viability or growth by half. In turn, `C#CC(=O)N1CCN(c2ccc(Cl)c(Cl)c2)[C@H](C(=O)NCc2cccs2)C1` yielded an EC50 with SARS-CoV-2 [1] of 1370 nM. This compound displayed an IC50 in series [2] of 2800 nM. For the same compound, the CC50 at 26 h in series [3] is 11900 nM.

Turning to `CC(C)(C)NC(=O)C(c1cccnc1)N(C(=O)c1ccco1)c1ccc(C(C)(C)C)cc1` (stereo unspecified), the EC50 in the series with SARS-CoV-2 [4] is > 20000 nM.

In the case of `O=C(NCc1cccs1)[C@@H]1CN(C(=O)CCl)CCN1c1ccc(Cl)c(Cl)c1`, the IC50 is > 30000 nM against Cathepsin K; > 30000 nM at Procathepsin L; 180 nM in [2]; > 30000 nM against Caspase-3; > 30000 nM against Cathepsin F; > 30000 nM on Cathepsin B. The EC50 in the series with SARS-CoV-2 [1] worked out at 2640 nM. In [5], the inhibition result is “Active”. Besides, the CC50 at 26 h in series [3] stood at 12500 nM. Besides, the Ratio in [6] was found to be 21500 M⁻¹ s⁻¹. Moreover, the Ratio IC50 in series [7] amounted to 28.

For the compound `COc1cccc2[nH]c(C(=O)N[C@@H](CC(C)C)C(=O)N[C@@H](C[C@@H]3CCNC3=O)C(=O)CO)cc12` [PF-00835231], in the series on SARS-CoV-2 [8], the EC50 stood at 230 nM.

`O=C[C@H](C[C@@H]1CCNC1=O)NC(=O)[C@H](CC1CCCCC1)NC(=O)c1cc2ccccc2[nH]1`: a half-maximal effect with SARS-CoV-2 [9] (EC50) was put at 420 nM.

Consider `O=C(NCc1cccs1)[C@@H]1CN(C(=O)CBr)CCN1c1ccc(Cl)c(Cl)c1`, for which the response in the series with SARS-CoV-2 [1] was half-maximal at 4240 nM (EC50). In series [2], this compound showed an IC50 of 310 nM. Also, in series [3], the CC50 at 26 h amounted to 6500 nM. Besides, the Ratio IC50 in series [7] was found to be 16.

Turning to `CC(C)(C)[C@H](NC(=O)C(F)(F)F)C(=O)N1C[C@H]2[C@@H]([C@H]1C(=O)N[C@H](C#N)C[C@@H]1CCNC1=O)C2(C)C`, the CC50 at 26 h in series [3] is > 100000 nM.

In the series on SARS-CoV-2 [1], `O=C(NCc1cccs1)[C@@H]1CN(C(=O)C(F)(F)S(=O)(=O)F)CCN1c1ccc(Cl)c(Cl)c1` came in with an EC50 of 183000 nM. The compound further came in with an IC50 in series [2] of 1600 nM. Besides, the CC50 at 26 h in [3] is > 100000 nM.

The compound `[2H][C@](C(=O)N[C@@H](C)c1ccc(F)cc1)(c1cccnc1)N(C(=O)C(C)=O)c1ccc2c(c1)oc1ccccc12` came in with an IC50 in series [10] of 8 nM. It took 900 nM to reach a half-maximal effect in the series with SARS-CoV-2 [4] (EC50).

Consider `O=C(NCc1cccs1)[C@@H]1CN(C(=O)c2cccnc2)CCN1c1ccc(Cl)c(Cl)c1`, for which, in the series on SARS-CoV-2 [1], the response was half-maximal at 400 nM (EC50). In series [2], this compound yielded an IC50 of 400 nM. Further, in series [3], the CC50 at 26 h was > 100000 nM.

On to `O=c1c2ccccc2[se]n1-c1ccccc1` [EBSELEN], for which the CC50 in series [11] is > 20000 nM.

The compound `C[C@H](NC(=O)[C@@H](c1cccnc1)N(C(=O)C(Cl)Cl)c1ccc(-c2ccccc2)cc1)c1ccccc1` registered a CC50 in [11] of 33100 nM. Further, inhibition in series [12] was half-maximal at 670 nM (IC50). In the series with SARS-CoV-2 [4], a half-maximal response (EC50) required 670 nM.

Compound `CCC(CC)COC(=O)[C@H](C)N[P@](=O)(OC[C@H]1O[C@@](C#N)(c2ccc3c(N)ncnn23)[C@H](O)[C@@H]1O)Oc1ccccc1` returned an EC50 in the series with SARS-CoV-2 [1] of 2270 nM. For the same compound, the CC50 at 26 h in series [3] was > 100000 nM.
